Consider three compounds from patent US20080145358A1, “Method for Determining Responsiveness to Chk1 Inhibitors” (ASTRAZENECA AB, priority 2005, published 2008).

Assay [1] relates to phospho-CHK. Nature of the assay: Western blot of phospho-CHK after DNA damaging agents in SW620 and or HT29 cells. The format is cell-based. Particulars: titration of DNA damaging agent, 8 hour incubation. How it is done:
Cell were then treated with a titration of DNA damaging agents (SN-38 (CQ International, China), doxorubicin (Sigma-Aldrich, MO) or gemcitabine (CQ International, China)). Cells were then harvested after an 8 hour incubation with DNA damaging agents in Onyx lysis buffer with protease and phosphatase inhibitors (20 mM Tris, 137 mM Na Cl, […], 1% Triton X, 10% glycerol, 1.5 mM MgCl2, 1:100 dilution of Calbiochem Phophatase Inhibitor Cocktail set II, 10 mM β-glycerophosphate, 1 mM DTT, 7 μg/ml PMSF, 20KIU/ml aprotinin, 1 mM Pefabloc, 0.1 mg/ml leupeptin). Protein lysates were then generated, protein concentration determined and equal protein loaded and analyzed by Western blot analysis using a 1:100 dilution of phospho-CHK rabbit monoclonal antibody (Ser 345) (133D3) acquired from Cell Signaling (Beverly, Mass.). […] To further characterize the CHK1 activation, SW620 and HT29 cells were treated with gemcitabine (100 nM) or SN38 (100 nM) and cells harvested at different times (from 30 minutes to 24 hours). […] A panel of tumor cell lines was then examined to determine how broadly in tumor cells CHK was activated and whether p53 status impacted CHK activation. The panel of cell lines were plated and treated for 8 hours with 100 nM of gemcitabine. Cell lysates were harvested and evaluated for phospho-CHK upregulation.

Assay [2] deals with phospho-H2AX. Kind of assay: Western blot of phospho-H2AX in SW620 and or A549 cells. The format is cell-based. As to conditions: 5 hour incubation, either compound used alone. How it is done: Cells were then harvested after a 5 hour incubation directly into SDS sample buffer (NuPAGE #NP007). Samples were then sonicated, passed through a 21 gauge needle, heated to 100° C. for 5 minutes, microcentrifuged and analyzed by Western blot analysis. Protein lysates were then generated, protein concentration determined and equal protein loaded and analyzed by Western blot analysis using a 1:5000 dilution of a mouse monoclonal anti-phospho H2AX […] (Upstate, N.Y.).
A general note: In western blotting, separated proteins are transferred to a membrane and probed.

Assay [3] has as its system phospho-CHK. Kind of assay: Western blot of phospho-CHK in a panel of tumor cell lines. The format is cell-based. Particulars: 100 nM, 8 hours.
Method: Cell were then treated with a titration of DNA damaging agents (SN-38 (CQ International, China), doxorubicin (Sigma-Aldrich, MO) or gemcitabine (CQ International, China)). […] Protein lysates were then generated, protein concentration determined and equal protein loaded and analyzed by Western blot analysis using a 1:100 dilution of phospho-CHK rabbit monoclonal antibody ([MUT]) (133D3) acquired from Cell Signaling (Beverly, Mass.). […] A panel of tumor cell lines was then examined to determine how broadly in tumor cells CHK was activated and whether p53 status impacted CHK activation. The panel of cell lines were plated and treated for 8 hours with 100 nM of gemcitabine. Cell lysates were harvested and evaluated for phospho-CHK upregulation.
The test system of assay [4] is phospho-CHK. Kind of assay: Phospho-CHK immunohistochemistry (IHC) in HeLa or A549 cells, Metamorph quantitation. Type of assay: cell-based. Particulars: 100 nM gemcitabine, 5 hours, FIG. 1.
Method: Phospho-CHK regulation was also examined by immunohistochemistry (IHC). […] Cells were fixed with 4% PFA in PBS (8 minutes room temperature), permeabilized with 0.5% Triton-X in PBS, washed with PBS and washed with 0.05% Tween 20 in PBS. Cells were then blocked with 10% Goat serum for 1 hour at room temperature, incubated with 1:50 dilution of phospho-CHK rabbit monoclonal antibody ([MUT]) (133D3) acquired from Cell Signaling (Beverly, Mass.) in 10% goat serum for 90 minutes, washed twice with PBS and once with 05% Tween 20 in PBS. […] Phospho-CHK staining was then quantitated using Metamorph analysis (Universal Imaging Corp, Dowington, Pa.).
Assay [5] relates to phospho-CHK. Kind of assay: Western blot of phospho-CHK in SW620 cells, gemcitabine and CHK inhibitor combination. The format is cell-based. As to conditions: 8 hours, 100 nM gemcitabine alone or 30, 100 or 500 nM CHK inhibitor alone. How it is done:
Cell were then treated with 100 nM gemcitabine or 30 nM, 100 nM or 500 nM CHK inhibitor or a combination of 100 nM gemcitabine and 30 nM, 100 nM or 500 nM for 8 hours. One set of cells were then harvested for Western blot analysis. Media containing compounds were removed from the remaining cells and fresh tissue culture media added back.

Assay [6] relates to phosphorylated CHK1. Kind of assay: Phosphorylated CHK1 staining (H-score) of hair follicles in skin biopsies. The format is in vivo, nude mice. Particulars: gemcitabine 30 or 60 mg/kg IV alone or Chk inhibitor 5, 20 or 40 mg/kg IV alone, seven hours.
From the text: Staining was specific to cell nuclei. […] Sections were then quantitated by H-score analysis.
Assay [7] deals with phospho-CHK. Nature of the assay: Western blot of phospho-CHK in H460 (dominant negative p53) xenograft tumors. The format is in vivo, nude rats. Particulars: 20 mg/kg IV. How it is done:
1×10^7 H460 cells expressing dominant negative p53 were injected into the right flank of male nude rats which had been irradiated with 5 Gy radiation 6 days prior to implantation. At day 20 when the tumors reached a size of […], animals were dosed IV with 20 mg/kg gemcitabine in 0.9% saline. Tumors were then harvested at varying time points including 1.5, 2, 2.5, 4, 6, 8 and 24 hours following gemcitabine dosing.

On to `CCc1c2c(nc3ccc(O)cc13)-c1cc3c(c(=O)n1C2)COC(=O)[C@]3(O)CC` [SN-38], for which the “phospho-CHK level by Western blot” value in assay [1] is “dose dependent up-regulation”.

In the case of `COc1cccc2c1C(=O)c1c(O)c3c(c(O)c1C2=O)C[C@@](O)(C(=O)CO)C[C@@H]3O[C@H]1C[C@H](N)[C@H](O)[C@H](C)O1` [doxorubicin], the “phospho-CHK level by Western blot” value in assay [1] is “dose dependent up-regulation”.

For `Nc1ccn([C@@H]2O[C@H](CO)[C@@H](O)C2(F)F)c(=O)n1` [gemcitabine], the “phospho-H2AX by Western blot, compound alone” value in assay [2] was “no change or a very modest change”. Besides, the “phospho-CHK level by Western blot” value is listed as “upregulated in a panel of tumor cell lines, albeit to different levels” in assay [3] and “dose dependent up-regulation” in assay [1]. Besides, the “area of phospho-CHK signal relative to nuclear area” value in assay [4] is “large increase”. Besides, in assay [5], the “phospho-CHK level by Western blot, single agent” value was “increase in phospho-CHK”. Also, the “phosphorylated CHK1 staining of hair follicles, single agent” value in assay [6] was “No staining”. Besides, the “time of maximum activation of CHK in tumor” value in assay [7] turned out to be 8 h. Further, the “time to activation of CHK in tumor” value in assay [7] is ≤ 2 h. Moreover, the “phospho-CHK in tumor at 24 hours” value in assay [7] (24 hours after dosing) is “significantly down-regulated”.
